In patent publication US7666884B2, “N-(2-substituted phenyl)-N-methoxycarbamates and their preparation and use thereof” (priority 2005, dated 2010):

Legend:
wheat powdery mildew [1] = test: Protective activity test against wheat powdery mildew; assay type: in vivo; conditions: for control %: protective, assessed 7 days later
Wheat root rot = test: In vitro fungicidal activity test, PDA mycelium growth inhibition method; assay type: cell-based
Experimental: (§1) PDA mycelium growth inhibition method was used for this test. Compound 13 (content 95%) was weighed quantitatively and dissolved in acetone of suitable volume (acetone's volume is 10% of the whole solution's volume), then diluted with water containing 0.1% Tween 80 into the solution of the medicament at the needed concentration, and then diluted with the same water into a series of concentration for tests. The medicament for test diluted by water was added quantitatively into the heating full-nutrition culture medium, to form culture medium including the medicament at a series of concentration, and then poured into 9-cm culture dish, after cooling, inoculated with the pathogen cake (diameter 0.5 cm) for test which was incubated in vitro, each treatment was repeated tree times. After treatment, placed in growth chamber in 27° C., 3-4 days later, observe the growth of the blank contrast fungi colony, the diameter of fungi colony was investigated and measured, and corrected inhibition ratio was calculated.

Cucumber scab = test: as above; assay type: cell-based
Experimental: as §1

Rice false smut = test: as above; assay type: cell-based
[2] = system: corn curvalaria leaf spot; test: as above; assay type: cell-based
Rice blast = test: microbe, parasite or virus in culture; assay type: cell-based
[3] = system: Wheat Fusarium Head Blight; test: microbe, parasite or virus in culture; assay type: cell-based; conditions: read-out: Effect of mycelium growth inhibition (%)
Cucumber wilt blight = test: In vitro fungicidal activity test, PDA mycelium growth inhibition method; assay type: cell-based; conditions: 27° C., 3-4 days, read-out: Effect of mycelium growth inhibition (%)
wheat powdery mildew [4] = test: Fungicidal activity tests against wheat powdery mildew (wheat seedlings sprayed at 200 mg/L, greenhouse); assay type: in vivo; conditions: 200 mg/L spray, inoculated 24 hours later, visual assessment 7 days after treatment
Experimental: Compounds for test were weighed quantitatively and dissolved into acetone of suitable volume (acetone's volume is 10% of the whole solution's volume), then diluted by water containing 0.1% (volume percent, the same below) Tween 80, into 200 mg/L. By turntable crop sprayer, wheat seedlings with 1 leaf and 1 core were treated under the spray pressure of 1.5 kg/cm^2 and the spray volume of about 1000 L/hm^2, then naturally dry, 24 hours later wheat powdery mildew spore was inoculated, and then continue being incubated in greenhouse. Assessment of efficacy was carried out by visual observation 7 days later after treatment.

Rice sheath blight = test: In vitro fungicidal activity test, PDA mycelium growth inhibition method; assay type: cell-based
wheat powdery mildew [5] = test: Curative activity test against wheat powdery mildew; assay type: in vivo; conditions: for control %: curative, sprayed 4 days after inoculation
Cucumber anthracnose = test: In vitro fungicidal activity test, PDA mycelium growth inhibition method; assay type: cell-based
[6] = 0.1 mg/L, 27° C., 3-4 days, read-out: Effect of mycelium growth inhibition (%)
[7] = 1 mg/L, 27° C., 3-4 days, read-out: Effect of mycelium growth inhibition (%)
[8] = 10 mg/L, 27° C., 3-4 days, read-out: Effect of mycelium growth inhibition (%)
[9] = Pyricularia oryzae, read-out: Effect of mycelium growth inhibition (%)

Which control % (wheat powdery mildew [1]; concentration 0.78 mg/L) does the source give for COC(=O)N(OC)c1ccccc1COc1nc(Cl)c(Cl)cc1Cl [Compound 13, Methyl N-methoxy-N-(2-((3,5,6-trichloropyridin-2-yl)oxymethyl)phenyl)carbamate] here?
The control % was 100%.

And the control % (wheat powdery mildew [1]; concentration 1.56 mg/L)?
The control % was 100%.

And the control % (wheat powdery mildew [1]; concentration 3.125 mg/L)?
The control % was 100%.

What about the control % (wheat powdery mildew [1]; concentration 6.25 mg/L) of the same compound?
The control % was 100%.

What about the control % (wheat powdery mildew [1]; concentration 12.5 mg/L) of the same compound?
The control % was 100%.

And the “preventative activity compared with the standard chemical (in words)” value (wheat powdery mildew [1]; versus Kresoxim-methyl, 0.78-12.5 mg/L)?
The value was “obviously better than the one of the standard chemical”.

And the inhibition at 0.1 µg/mL (Wheat root rot; Wheat root rot, 0.1 mg/L, 27° C., 3-4 days, read-out: Effect of mycelium growth inhibition (%))?
Its inhibition at 0.1 µg/mL is 32.6%.

And the inhibition at 1 µg/mL (Wheat root rot; Wheat root rot, 1 mg/L, 27° C., 3-4 days, read-out: Effect of mycelium growth inhibition (%))?
The inhibition at 1 µg/mL was 46.3%.

And the inhibition at 10 µg/mL (Wheat root rot; Wheat root rot, 10 mg/L, 27° C., 3-4 days, read-out: Effect of mycelium growth inhibition (%))?
Its inhibition at 10 µg/mL is 61.1%.

And the “fungicidal activity (in words)” value (Wheat root rot; wheat root rot, in vitro)?
The value was “outstanding”.

What about the inhibition at 0.1 µg/mL (Cucumber scab; [6]) of the same compound?
The inhibition at 0.1 µg/mL was 28.7%.

What about the inhibition at 1 µg/mL (Cucumber scab; [7]) of the same compound?
The inhibition at 1 µg/mL was 50%.

What about the inhibition at 10 µg/mL (Cucumber scab; [8]) of the same compound?
Its inhibition at 10 µg/mL is 65%.

And the “fungicidal activity (in words)” value (Cucumber scab; in vitro)?
Its value is “outstanding”.

And the inhibition at 0.1 µg/mL (Rice false smut; Rice false smut, 0.1 mg/L, 27° C., 3-4 days, read-out: Effect of mycelium growth inhibition (%))?
The inhibition at 0.1 µg/mL was 19.5%.

What about the inhibition at 1 µg/mL (Rice false smut; Rice false smut, 1 mg/L, 27° C., 3-4 days, read-out: Effect of mycelium growth inhibition (%)) of the same compound?
Its inhibition at 1 µg/mL is 42.8%.

And the inhibition at 10 µg/mL (Rice false smut; Rice false smut, 10 mg/L, 27° C., 3-4 days, read-out: Effect of mycelium growth inhibition (%))?
The inhibition at 10 µg/mL was 79.2%.

What about the “fungicidal activity (in words)” value (Rice false smut; rice false smut, in vitro) of the same compound?
Its value is “outstanding”.

What about the inhibition at 0.1 µg/mL [2, 6] of the same compound?
Its inhibition at 0.1 µg/mL is 55.4%.

And the inhibition at 1 µg/mL [2, 7]?
Its inhibition at 1 µg/mL is 56.2%.

And the inhibition at 10 µg/mL [2, 8]?
The inhibition at 10 µg/mL was 70.2%.

What about the “fungicidal activity (in words)” value ([2]; in vitro) of the same compound?
Its value is “outstanding”.

And the inhibition at 0.1 µg/mL (Rice blast; [9])?
The inhibition at 0.1 µg/mL was 36.6%.

What about the inhibition at 1 µg/mL (Rice blast; [9]) of the same compound?
The inhibition at 1 µg/mL was 62.6%.

What about the inhibition at 10 µg/mL (Rice blast; [9]) of the same compound?
Its inhibition at 10 µg/mL is 77.2%.

And the “fungicidal activity (in words)” value (Rice blast; rice blast, in vitro)?
Its value is “outstanding”.

And the inhibition at 0.1 µg/mL [3]?
The inhibition at 0.1 µg/mL was 20.3%.

What about the inhibition at 1 µg/mL [3] of the same compound?
The inhibition at 1 µg/mL was 21.1%.

And the inhibition at 10 µg/mL [3]?
The inhibition at 10 µg/mL was 42.9%.

What about the inhibition at 0.1 µg/mL (Cucumber wilt blight; 0.1 mg/L) of the same compound?
Its inhibition at 0.1 µg/mL is 27.1%.

And the inhibition at 1 µg/mL (Cucumber wilt blight; 1 mg/L)?
The inhibition at 1 µg/mL was 33.6%.

What about the inhibition at 10 µg/mL (Cucumber wilt blight; 10 mg/L) of the same compound?
The inhibition at 10 µg/mL was 51.4%.

What about the “control %” value (wheat powdery mildew [4]) of the same compound?
The value was 100%.

And the inhibition at 0.1 µg/mL (Rice sheath blight; Rice sheath blight, 0.1 mg/L, 27° C., 3-4 days, read-out: Effect of mycelium growth inhibition (%))?
Its inhibition at 0.1 µg/mL is 42.7%.

And the inhibition at 1 µg/mL (Rice sheath blight; Rice sheath blight, 1 mg/L, 27° C., 3-4 days, read-out: Effect of mycelium growth inhibition (%))?
The inhibition at 1 µg/mL was 59.2%.

And the inhibition at 10 µg/mL (Rice sheath blight; Rice sheath blight, 10 mg/L, 27° C., 3-4 days, read-out: Effect of mycelium growth inhibition (%))?
The inhibition at 10 µg/mL was 78.6%.

And the “fungicidal activity (in words)” value (Rice sheath blight; rice sheath blight, in vitro)?
Its value is “outstanding”.

And the melting point?
Its melting point is 94 to 95 °C.

And the control % (wheat powdery mildew [5]; concentration 0.78 mg/L)?
The control % was 10%.

What about the control % (wheat powdery mildew [5]; concentration 1.56 mg/L) of the same compound?
The control % was 35%.

What about the control % (wheat powdery mildew [5]; concentration 3.125 mg/L) of the same compound?
The control % was 70%.

And the control % (wheat powdery mildew [5]; concentration 6.25 mg/L)?
Its control % is 100%.

And the control % (wheat powdery mildew [5]; concentration 12.5 mg/L)?
Its control % is 100%.

What about the “curative activity compared with the standard chemical (in words)” value (wheat powdery mildew [5]; versus kresoxim-methyl) of the same compound?
The value was “better than the one of standard chemical”.

And the inhibition at 0.1 µg/mL (Cucumber anthracnose; Cucumber anthracnose, 0.1 mg/L, 27° C., 3-4 days, read-out: Effect of mycelium growth inhibition (%))?
The inhibition at 0.1 µg/mL was 42.8%.

What about the inhibition at 1 µg/mL (Cucumber anthracnose; Cucumber anthracnose, 1 mg/L, 27° C., 3-4 days, read-out: Effect of mycelium growth inhibition (%)) of the same compound?
Its inhibition at 1 µg/mL is 62.8%.

And the inhibition at 10 µg/mL (Cucumber anthracnose; Cucumber anthracnose, 10 mg/L, 27° C., 3-4 days, read-out: Effect of mycelium growth inhibition (%))?
The inhibition at 10 µg/mL was 72.4%.

What about the “fungicidal activity (in words)” value (Cucumber anthracnose; cucumber anthracnose, in vitro) of the same compound?
The value was “outstanding”.

Which “control %” value (wheat powdery mildew [4]) does the source give for COC(=O)N(OC)c1ccccc1CNc1c(Cl)c(F)nc(F)c1Cl [Compound 49, Methyl N-(2-((3,5-dichloro-2,6-difluoropyridin-4-yl)aminomethyl)phenyl)-N-methoxycarbamate] here?
The value was 85%.

And the melting point?
The melting point was 82 to 83 °C.

For CO/N=C(/C(=O)OC)c1ccccc1COc1ccccc1C [Kresoxim-methyl, reference compound], which control % (wheat powdery mildew [1]; concentration 0.78 mg/L) is on record?
Its control % is 15%.

And the control % (wheat powdery mildew [1]; concentration 1.56 mg/L)?
The control % was 40%.

What about the control % (wheat powdery mildew [1]; concentration 3.125 mg/L) of the same compound?
The control % was 70%.

What about the control % (wheat powdery mildew [1]; concentration 6.25 mg/L) of the same compound?
Its control % is 98%.

And the control % (wheat powdery mildew [1]; concentration 12.5 mg/L)?
The control % was 100%.

And the control % (wheat powdery mildew [5]; concentration 0.78 mg/L)?
The control % was 0%.

What about the control % (wheat powdery mildew [5]; concentration 1.56 mg/L) of the same compound?
Its control % is 10%.

What about the control % (wheat powdery mildew [5]; concentration 3.125 mg/L) of the same compound?
Its control % is 15%.

And the control % (wheat powdery mildew [5]; concentration 6.25 mg/L)?
Its control % is 75%.

And the control % (wheat powdery mildew [5]; concentration 12.5 mg/L)?
Its control % is 100%.
